The source of these data is US9540362B2, “Sphingosine-1-phosphate receptor agonists, methods of preparing the same, and pharmaceutical compositions containing the same as an active agent” (LG LIFE SCIENCES LTD., priority 2013, dated 2017).

Structures can show the parent of a compound that is named as a salt.

In experiment [1] the target is human sphingosine-1-phosphate 1 receptor (S1P1 receptor) (Homo sapiens, UniProt P21453). Briefly: Ca2+ inducing ability using CHO cells overexpressing human S1P1 receptor (Calcium 5 assay kit). In kind it is cell-based. The settings on record: CHO cells overexpressing human S1P1, calcium RFU; S1P 1 μM = 100%. The source says: Evaluation of Ca^2+ inducing ability of test compound using a cell line expressing human sphingosine-1-phosphate
CHO (Chinese hamster ovary) cells which overexpress human sphingosine-1-phosphate 1 receptor (S1P1 receptor) that react with sphingosine-1-phosphate (S1P) are used for a functional test method wherein an increase of calcium indicates a therapeutic efficacy of an agonist compound.
To prepare CHO cells which overexpress human S1P1˜S1P5, human clones for each subtype having HA at the N terminal residue (S1P1: EDG010TN00, S1P2: EDG020TN00, S1P3: EDG030TN00, S1P4: EDG060TN00, S1P5: EDG080TN00) were purchased from the Missouri S&T cDNA Resource Center and co-transfected with G-protein alpha subunit (G-alpha-16) into CHO-K1 cells.
A calcium measurement kit (Calcium 5 assay kit, Molecular Devices) was used to select an agonist compound. The principle of calcium measurement is that calcium-sensitive dyes are applied to cells, they enter into the cytoplasm of the cells during incubation, and when a ligand binds to a certain receptor to release calcium into the cytoplasm, the dyes bind to said calcium to induce fluorescence which is measured. This test method can sensitively measure only the intracellular calcium concentration change because any change that may occur outside the cells is masked by a masking dye.
The experimental procedure was as follows. One day before calcium measurement, CHO cells overexpressing hS1P1˜hS1P5 were dispensed into a 96-well plate (bottom clear black well) in 3×10^4 cells per well and cultured at 37° C. under 5% carbon dioxide condition for one day. 100 μl of calcium dyes mixed with Assay Buffer (1×HBSS, 20 mM HEPES, 2.5 mM probenecid, pH 7.4) were dispensed into culture solution in well and cultured at 37° C. for one hour. Test compounds were dissolved in 100% DMSO to prepare 1 μl solution per each concentration, and each solution was mixed with 199 μl Assay Buffer such that the concentrations were 50, 5, 0.5, 0.05, 0.005 and 0.0005 μM. The plate cultured with the calcium dyes was put into FlaxstationII (Molecular Devices), and the prepared test compounds (the final concentrations of the test compounds: 10, 1, 0.1, 0.01, 0.001 and 0.0001 μM) were programmed to be automatically inoculated in 50 μl per each well. For a total of 90 seconds, RFU (relative fluorescence unit) values were measured. The value of Reference (S1P substance 1 μM) deducting the blank value was set as 100%, and EC50 values of the test compounds were calculated by prism.

Another experiment deals with lymphocytes in blood. In words: Rat peripheral blood lymphocyte decrease. In kind it is in vivo. Particulars: male SD rat, 6 hours after administration. The protocol:
Evaluation of Rat Peripheral Blood Lymphocyte Decrease
Lymphocyte decrease in blood by S1P1 agonist was evaluated using a male SD rat. After adapting a rat weighing about 250 g to a breeding facility for one week, a test compound was administered to it once. At 3 hours, 6 hours, 24 hours and 48 hours after administration, blood was taken from a tail caudal vein, and about 200 μl of the blood was put into an EDTA tube while preventing it from clotting, followed by measurement of the number of lymphocytes in blood. The number of lymphocytes was analyzed by a hematological examination device, Hemoanalyzer. The doses of the test compounds were 3 mg/kg for Example 52, 94, 108, 117, 142, 145, 146, 148 and 149 compounds, and 1 mg/kg for Example 150, 151, 153, 154, 155, 158, 159 and 161 compounds.

human sphingosine-1-phosphate 1 receptor (S1P1 receptor), sequence (P21453 whole entry): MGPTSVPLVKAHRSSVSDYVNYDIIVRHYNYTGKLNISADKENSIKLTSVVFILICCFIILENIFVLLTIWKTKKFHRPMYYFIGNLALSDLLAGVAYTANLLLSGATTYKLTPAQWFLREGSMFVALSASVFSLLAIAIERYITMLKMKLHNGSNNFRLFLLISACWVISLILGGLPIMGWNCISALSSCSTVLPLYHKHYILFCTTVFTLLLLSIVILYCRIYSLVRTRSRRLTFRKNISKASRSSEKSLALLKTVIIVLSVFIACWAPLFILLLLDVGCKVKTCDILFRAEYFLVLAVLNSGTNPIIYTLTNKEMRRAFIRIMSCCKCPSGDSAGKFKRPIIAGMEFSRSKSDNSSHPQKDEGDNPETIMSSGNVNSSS

Regarding `Cc1cc(CCC(=O)O)ccc1-c1noc(-c2ccc3c(ccn3C(C)C)c2)n1` [Example 1, 3-{4-[5-(1-isopropyl-1H-indol-5-yl)-[1,2,4]oxadiazol-3-yl]-3-methyl-phenyl}-propanoic acid], in experiment [1], the EC50 was 5 nM.
`CC(C)n1ccc2cc(-c3nc(-c4ccc(CN5CC(C(=O)O)C5)cc4)no3)ccc21` [Example 2, 1-{4-[5-(1-isopropyl-1H-indol-5-yl)-[1,2,4]oxadiazol-3-yl]-benzyl}-azetidine-3-carboxylic acid]: in experiment [1], the EC50 came out at 25 nM.
For the compound `Cc1cc(CN2CC(C(=O)O)C2)ccc1-c1noc(-c2ccc3c(c2)c(Cl)cn3C(C)C)n1` [Example 3, 1-{4-[5-(3-chloro-1-isopropyl-1H-indol-5-yl)-[1,2,4]oxadiazol-3-yl]-3-methyl-benzyl}-azetidine-3-carboxylic acid], the concentration giving a half-maximal response (EC50) in experiment [1] came to 23 nM.
Take `Cc1cc(CN2CC(C(=O)O)C2)ccc1-c1noc(-c2ccc3c(c2)c(C#N)cn3C(C)C)n1` [Example 4, 1-{4-[5-(3-cyano-1-isopropyl-1H-indol-5-yl)-[1,2,4]oxadiazol-3-yl]-3-methyl-benzyl}-azetidine-3-carboxylic acid]: the concentration giving a half-maximal response (EC50) in experiment [1] was 23 nM.
Take `Cc1cc(CN2CC(C(=O)O)C2)ccc1-c1noc(-c2ccc3c(ccn3C(C)C)c2)n1` [Example 5, 1-{4-[5-(1-isopropyl-1H-indol-5-yl)-[1,2,4]oxadiazol-3-yl]-3-methyl-benzyl}-azetidine-3-carboxylic acid]: the concentration giving a half-maximal response (EC50) in experiment [1] was 14 nM.
As for `Cc1c(CN2CC(C(=O)O)C2)cccc1-c1noc(-c2ccc3c(ccn3C(C)C)c2)n1` [Example 26, 1-{3-[5-(1-isopropyl-1H-indol-5-yl)-[1,2,4]oxadiazol-3-yl]-2-methyl-benzyl}-azetidine-3-carboxylic acid], the 50% effective concentration (EC50) in experiment [1] worked out at 2 nM.
For the compound `CC(C)n1ccc2cc(-c3nc(-c4cccc5c4CCCC5NS(N)(=O)=O)no3)ccc21` (stereo not shown) [Example 38, N-{5-[5-(1-isopropyl-1H-indol-5-yl)-[1,2,4]oxadiazol-3-yl]-1,2,3,4-tetrahydro-naphthalen-1-yl}-sulfamide], in experiment [1], the EC50 stood at 50 nM.
Take `Cc1cc(CCC(=O)O)ccc1-c1noc(-c2ccc3c(c2)c(Cl)cn3C(C)C)n1` [Example 52, 3-{4-[5-(3-chloro-1-isopropyl-1H-indol-5-yl)-[1,2,4]oxadiazol-3-yl]-3-methyl-phenyl}-propanoic acid]: the 50% effective concentration (EC50) in experiment [1] is 10 nM. In addition, the “Lymphocyte count (degree of decrease in lymphocyte number)” value in the experiment with lymphocytes in blood (administered once, 3 mg/kg) was −80%.
With `Cc1c(-c2noc(-c3ccc4c(c3)c(Cl)cn4C(C)C)n2)ccc2c1CCN(CC(=O)O)C2` [Example 58, {6-[5-(3-chloro-1-isopropyl-1H-indol-5-yl)-[1,2,4]oxadiazol-3-yl]-5-methyl-3,4-dihydro-1H-isoquinolin-2-yl}-acetic acid, hydrochloride], the concentration giving a half-maximal response (EC50) in experiment [1] is 20 nM.
With `Cc1c(-c2noc(-c3ccc4c(cnn4C(C)C)c3)n2)ccc2c1CCN(CC(=O)O)C2` [Example 85, {6-[5-(1-isopropyl-1H-indazol-5-yl)-[1,2,4]oxadiazol-3-yl]-5-methyl-3,4-dihydro-1H-isoquinolin-2-yl}-acetic acid, trifluoroacetate], the EC50 in experiment [1] was determined as 10 nM.
Regarding `Cc1c(-c2noc(-c3ccc4c(c3)c(Cl)nn4C(C)C)n2)ccc2c1CCN(CCC(=O)O)C2` [Example 94, 3-{6-[5-(3-chloro-1-isopropyl-1H-indazol-5-yl)-[1,2,4]oxadiazol-3-yl]-5-methyl-3,4-dihydro-1H-isoquinolin-2-yl}-propanoic acid, trifluoroacetate], the EC50 in experiment [1] was determined as 6 nM. The “Lymphocyte count (degree of decrease in lymphocyte number)” value in the experiment on lymphocytes in blood (administered once, 3 mg/kg) was −82%.
In the case of `Cc1c(-c2noc(-c3ccc4nn(C(C)C)cc4c3)n2)ccc2c1CCN(CC(=O)O)C2` [Example 97, {6-[5-(2-isopropyl-2H-indazol-5-yl)-[1,2,4]oxadiazol-3-yl]-5-methyl-3,4-dihydro-1H-isoquinolin-2-yl}-acetic acid, trifluoroacetate], in experiment [1], the EC50 is 50 nM.
As for `CC(C)n1nc(Cl)c2cc(-c3nc(-c4cccc5c4CCN(S(N)(=O)=O)C5)no3)ccc21` [Example 108, 5-[5-(3-chloro-1-isopropyl-1H-indazol-5-yl)-[1,2,4]oxadiazol-3-yl]-3,4-dihydro-1H-isoquinoline-2-sulfonic acid amide], in experiment [1], the concentration giving a half-maximal response (EC50) was found to be 20 nM. Further, the “Lymphocyte count (degree of decrease in lymphocyte number)” value in the experiment with lymphocytes in blood (administered once, 3 mg/kg) is −70%.
As for `Cc1c(-c2noc(-c3ccc4c(c3)c(C)nn4C(C)C)n2)ccc2c1CCN(CC(=O)O)C2` [Example 117, {6-[5-(1-isopropyl-3-methyl-1H-indazol-5-yl)-[1,2,4]oxadiazol-3-yl]-5-methyl-3,4-dihydro-1H-isoquinolin-2-yl}-acetic acid, trifluoroacetate], in experiment [1], the EC50 was 3 nM. Also, the “Lymphocyte count (degree of decrease in lymphocyte number)” value in the experiment on lymphocytes in blood (administered once, 3 mg/kg) is listed as −80%.
Consider `Cc1cc(C(C)CC(=O)O)ccc1-c1noc(-c2ccc3c(c2)c(Cl)nn3C(C)C)n1` (stereo not shown) [Example 129, 3-{4-[5-(3-chloro-1-isopropyl-1H-indazol-5-yl)-[1,2,4]oxadiazol-3-yl]-3-methyl-phenyl}-butyric acid, trifluoroacetate], for which, in experiment [1], the EC50 stood at 50 nM.
For `CC(C)n1nc(Cl)c2cc(COc3ccc4cc(CN5CC(C(=O)O)C5)ccc4c3)ccc21` [Example 142, 1-[6-(3-chloro-1-isopropyl-1H-indazol-5-ylmethoxy)-naphthalen-2-ylmethyl]-azetidine-3-carboxylic acid], the EC50 in experiment [1] worked out at 7 nM. Also, in the experiment with lymphocytes in blood (administered once, 3 mg/kg), the “Lymphocyte count (degree of decrease in lymphocyte number)” value was −80%.
Turning to `CC1=C(CN(C)CC(=O)O)CCc2cc(OCc3ccc4c(c3)c(Cl)nn4C(C)C)ccc21` [Example 145, {[6-(3-chloro-1-isopropyl-1H-indazol-5-ylmethoxy)-1-methyl-3,4-dihydro-naphthalen-2-ylmethyl]-methyl-amino}-acetic acid], the concentration for a half-maximal effect (EC50) in experiment [1] was determined as 9 nM. Moreover, the “Lymphocyte count (degree of decrease in lymphocyte number)” value in the experiment with lymphocytes in blood (administered once, 3 mg/kg) is reported as −48%.
Turning to `CC1=C(CN2CC(C(=O)O)C2)CCc2cc(OCc3ccc4c(c3)c(Cl)nn4C(C)C)ccc21` [Example 146, 1-[6-(3-chloro-1-isopropyl-1H-indazol-5-ylmethoxy)-1-methyl-3,4-dihydro-naphthalen-2-ylmethyl]-azetidine-3-carboxylic acid], the EC50 in experiment [1] amounted to 5 nM. The “Lymphocyte count (degree of decrease in lymphocyte number)” value in the experiment on lymphocytes in blood (administered once, 3 mg/kg) is recorded as −78%.
For `CC1=C(CN2CCC(C(=O)O)CC2)CCc2cc(OCc3ccc4c(c3)c(Cl)nn4C(C)C)ccc21` [Example 148, 1-[6-(3-chloro-1-isopropyl-1H-indazol-5-ylmethoxy)-1-methyl-3,4-dihydro-naphthalen-2-ylmethyl]-piperidine-4-carboxylic acid], the concentration for a half-maximal effect (EC50) in experiment [1] is 19 nM. Besides, in the experiment with lymphocytes in blood (administered once, 3 mg/kg), the “Lymphocyte count (degree of decrease in lymphocyte number)” value is −81%.
With `CC1=C(CN2CCCC(C(=O)O)CC2)CCc2cc(OCc3ccc4c(c3)c(Cl)nn4C(C)C)ccc21` (stereo not shown) [Example 149, 1-[6-(3-chloro-1-isopropyl-1H-indazol-5-ylmethoxy)-1-methyl-3,4-dihydro-naphthalen-2-ylmethyl]-azepane-4-carboxylic acid], the EC50 in experiment [1] was 19 nM. Besides, the “Lymphocyte count (degree of decrease in lymphocyte number)” value in the experiment on lymphocytes in blood (administered once, 3 mg/kg) is listed as −80%.
For `CCC(C)n1nc(Cl)c2cc(COc3ccc4c(c3)CCC(CN3CCC(C(=O)O)CC3)=C4Cl)cnc21` (stereo not shown) [Example 160, 1-[6-(1-sec-butyl-3-chloro-1H-pyrazolo[3,4-b]pyridin-5-ylmethoxy)-1-chloro-3,4-dihydro-naphthalen-2-ylmethyl]-piperidine-4-carboxylic acid], in experiment [1], the EC50 turned out to be 19 nM.
`CCCCCCCCc1ccc(CCC(N)(CO)CO)cc1` [FTY-720, Fingolimod, reference compound]: the “Lymphocyte count (degree of decrease in lymphocyte number)” value in the experiment with lymphocytes in blood (dose of the reference not stated) was −80%.

As a reminder, the EC50 is the concentration giving half of the maximal effect.
